molecular target: Human DDB1 (Homo sapiens (Human), UniProt Q16531); assay: Surface plasmon resonance (SPR) binding assay to immobilized His-DDB1; conditions: SPR, steady state affinity model, 25° C.; read-out: Binding (DDB1 binder activities, Kd)
Protocol: The binding affinities of heterobifunctional compounds to DDB1 were determined by SPR assay. Purified His-DDB1 proteins were immobilized on a CM5 sensor chip, and a dose range of compound solutions were injected in multi-cycle kinetic format. Data were fit to steady state model and gave equivalent dissociation constants (KD).
Protein Expression and Purification. Human DDB1 (UniPro: Q16531) coding sequences were cloned into pFastBacHTB vector and were expressed in High5 cells using Bac-to-Bac baculovirus expression system (Thermo Fisher Scientific). […] DDB1 proteins were obtained from supernatant of cell lysates and purified through sequential application of Ni affinity (Ni-NTA column. Bio-Rad), and size-exclusion (Superdex 200 16/600GL column, GE Healthcare) column chromatography.
Surface plasmon resonance (SPR) binding assay. All SPR studies were performed on a Biacore X100 plus or T200 instrument (GE Healthcare). Immobilization of purified His-DDB1 was carried out at 25° C. using a CM5 sensor chip. The surface was pre-equilibrated in HBS-EP running buffer (10 mM HEPES, pH7.4, 150 mM NaCl, 3 mM EDTA, 0.05% P20), then activated with EDC/NHS. His-DDB1 proteins were immobilized by amine coupling to a density of 11,000-13,000 resonance units (RUs) on flow cell FC2, whereas flow cell FC1 was used as reference. Both DDB1 immobilized and reference surfaces were deactivated with 1M ethanolamine.
All interaction experiments were performed at 25° C. […] Compound Solutions were injected individually in multi-cycle kinetic format without regeneration (flow rate […], association time 120 s, dissociation time 120 s). Sensorgrams from reference surfaces and blank injections were subtracted from the raw data (double-referencing) and the data was solvent-corrected prior to analysis. All data were fit to steady state affinity model using Biacore Evaluation Software and gave equivalent dissociation constants (KD).

Human DDB1, sequence (Q16531 whole entry): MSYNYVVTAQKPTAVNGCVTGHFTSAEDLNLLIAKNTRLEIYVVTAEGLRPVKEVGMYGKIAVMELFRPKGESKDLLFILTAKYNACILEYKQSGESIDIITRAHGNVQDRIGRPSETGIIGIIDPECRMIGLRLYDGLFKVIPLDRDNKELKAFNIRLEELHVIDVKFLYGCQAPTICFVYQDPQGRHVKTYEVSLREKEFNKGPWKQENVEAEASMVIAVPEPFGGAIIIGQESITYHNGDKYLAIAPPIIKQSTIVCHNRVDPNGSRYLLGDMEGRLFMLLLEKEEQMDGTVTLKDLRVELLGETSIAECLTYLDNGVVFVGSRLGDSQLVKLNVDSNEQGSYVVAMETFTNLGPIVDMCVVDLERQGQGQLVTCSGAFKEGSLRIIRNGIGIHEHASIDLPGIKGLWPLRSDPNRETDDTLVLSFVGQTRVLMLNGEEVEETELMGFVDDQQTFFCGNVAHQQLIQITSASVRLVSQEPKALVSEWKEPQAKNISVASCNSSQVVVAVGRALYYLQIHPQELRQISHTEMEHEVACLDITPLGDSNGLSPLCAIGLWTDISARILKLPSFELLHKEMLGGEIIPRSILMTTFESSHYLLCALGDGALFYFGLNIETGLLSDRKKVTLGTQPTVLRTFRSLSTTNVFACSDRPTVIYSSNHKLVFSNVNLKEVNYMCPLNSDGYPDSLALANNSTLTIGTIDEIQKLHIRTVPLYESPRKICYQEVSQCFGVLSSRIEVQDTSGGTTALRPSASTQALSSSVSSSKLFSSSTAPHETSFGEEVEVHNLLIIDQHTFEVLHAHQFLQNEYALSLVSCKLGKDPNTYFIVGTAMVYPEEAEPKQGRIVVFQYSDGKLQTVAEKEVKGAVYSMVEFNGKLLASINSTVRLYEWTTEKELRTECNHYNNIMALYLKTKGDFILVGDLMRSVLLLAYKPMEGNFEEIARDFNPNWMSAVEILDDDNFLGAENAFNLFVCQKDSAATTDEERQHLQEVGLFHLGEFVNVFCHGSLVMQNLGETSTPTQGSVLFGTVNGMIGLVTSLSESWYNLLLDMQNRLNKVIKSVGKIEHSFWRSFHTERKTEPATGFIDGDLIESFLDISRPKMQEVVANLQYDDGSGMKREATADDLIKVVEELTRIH

“2-Acetamido-3-butyramido-N-(5-nitrothiazol-2-yl)benzamide [B-146]” and `CC(=O)Oc1ccccc1C(=O)Nc1ncc([N+](=O)[O-])s1` [B-1, 2-((5-nitrothiazol-2-yl)carbamoyl)phenylacetate] fall in the same range of Kd: 20 to 100 µM for the first, 20 to 100 µM for the second.

`O=C(Nc1ncc([N+](=O)[O-])s1)c1ccccc1O` [B-2, 2-hydroxy-N-(5-nitrothiazol-2-yl)benzamide] and `O=C(Nc1ncc([N+](=O)[O-])s1)c1ccccc1` [B-3, N-(5-Nitrothiazol-2-yl)benzamide] fall in the same range of Kd: 20 to 100 µM for the first, 20 to 100 µM for the second.

First: CC(=O)Nc1ccccc1C(=O)Nc1ncc([N+](=O)[O-])s1 [B-4, 2-Acetamido-N-(5-nitrothiazol-2-yl)benzamide]
Second: CNC(=O)c1ccccc1C(=O)Nc1ncc([N+](=O)[O-])s1 [B-5, N^1-Methyl-N^2-(5-nitrothiazol-2-yl)phthalamide]
The Kd of the first is lower: < 20 µM for the first, > 100 µM for the second.

`CCNc1ccccc1C(=O)Nc1ncc([N+](=O)[O-])s1` [B-6] and `CCOc1ccccc1C(=O)Nc1ncc([N+](=O)[O-])s1` [B-7, 2-Ethoxy-N-(5-nitrothiazol-2-yl)benzamide] cannot be ordered by Kd: < 20 µM for the first, < 20 µM for the second.

First: CC(=O)Oc1ccccc1C(=O)N(C)c1ncc([N+](=O)[O-])s1 [B-8, 2-(Methyl(5-nitrothiazol-2-yl)carbamoyl)phenyl acetate]
Second: CC(=O)Oc1ccccc1C(=O)Nc1nc(C)c([N+](=O)[O-])s1 [B-9, 2-((4-Methyl-5-nitrothiazol-2-yl)carbamoyl)phenyl acetate]
The Kd of the first is lower: < 20 µM for the first, 20 to 100 µM for the second. The first binds more tightly here.

`O=C(Nc1ncc(Cl)s1)c1ccccc1O` [B-10] and `CCCNC(=O)c1cccc(C(=O)Nc2ncc([N+](=O)[O-])s2)c1OC(C)=O` [B-11, 2-((5-Nitrothiazol-2-yl)carbamoyl)-6-(propylcarbamoyl)phenyl acetate] fall in the same range of Kd: 20 to 100 µM for the first, 20 to 100 µM for the second.

`CCCNC(=O)c1ccc(OC(C)=O)c(C(=O)Nc2ncc([N+](=O)[O-])s2)c1` [B-13, 2-((5-Nitrothiazol-2-yl)carbamoyl)-4-(propylcarbamoyl)phenyl acetate] and `CCCNC(=O)c1cccc(OC(C)=O)c1C(=O)Nc1ncc([N+](=O)[O-])s1` [B-14, 2-((5-Nitrothiazol-2-yl)carbamoyl)-3-(propylcarbamoyl)phenyl acetate] fall in the same range of Kd: 20 to 100 µM for the first, 20 to 100 µM for the second.

Compared with `CCCNC(=O)c1cccc(C(=O)Nc2ncc([N+](=O)[O-])s2)c1O` [B-15, 2-hydroxy-N^1-(5-nitrothiazol-2-yl)-N^3-propylisophthalamide], `CCCCNc1ccc(C(=O)Nc2ncc([N+](=O)[O-])s2)c(OC(C)=O)c1` [B-17, 5-(Butylamino)-2-((5-nitrothiazol-2-yl)carbamoyl)phenyl acetate] is lower in Kd: 20 to 100 µM for the first, < 20 µM for the second. The second binds more tightly here.

`CCCCNc1ccc(OC(C)=O)c(C(=O)Nc2ncc([N+](=O)[O-])s2)c1` [B-18, 4-(butylamino)-2-((5-nitrothiazol-2-yl)carbamoyl)phenylacetate] and `CCCCNc1cccc(OC(C)=O)c1C(=O)Nc1ncc([N+](=O)[O-])s1` [B-19, 3-(Butylamino)-2-((5-nitrothiazol-2-yl)carbamoyl)phenyl acetate] fall in the same range of Kd: 20 to 100 µM for the first, 20 to 100 µM for the second.

First: CCCC(=O)Nc1ccc(C(=O)Nc2ncc([N+](=O)[O-])s2)c(OC(C)=O)c1 [B-21, 5-Butyramido-2-((5-nitrothiazol-2-yl)carbamoyl)phenyl acetate]
Second: CCCC(=O)Nc1ccc(OC(C)=O)c(C(=O)Nc2ncc([N+](=O)[O-])s2)c1 [B-22, 4-Butyramido-2-((5-nitrothiazol-2-yl)carbamoyl)phenyl acetate]
The Kd of the first is higher: > 100 µM for the first, 20 to 100 µM for the second.

`CCCC(=O)Nc1cccc(OC(C)=O)c1C(=O)Nc1ncc([N+](=O)[O-])s1` [B-23, 3-Butyramido-2-((5-nitrothiazol-2-yl)carbamoyl)phenyl acetate] and `CCCC(=O)Nc1cccc(C(=O)Nc2ncc([N+](=O)[O-])s2)c1OC(=O)CCC` [B-24, 2-Butyramido-6-((5-nitrothiazol-2-yl)carbamoyl)phenyl butyrate] fall in the same range of Kd: 20 to 100 µM for the first, 20 to 100 µM for the second.

`CCCC(=O)Nc1cccc(OC(=O)CCC)c1C(=O)Nc1ncc([N+](=O)[O-])s1` [B-25, 3-Butyramido-2-((5-nitrothiazol-2-yl)carbamoyl)phenyl butyrate] and `CC(=O)Nc1ccccc1C(=O)Nc1nc(C)c([N+](=O)[O-])s1` [B-27, 2-Acetamido-N-(4-methyl-5-nitrothiazol-2-yl)benzamide] fall in the same range of Kd: 20 to 100 µM for the first, 20 to 100 µM for the second.

`CC(=O)Nc1ccccc1C(=O)Nc1nc(Cl)c([N+](=O)[O-])s1` [B-29, 2-Acetamido-N-(4-chloro-5-nitrothiazol-2-yl)benzamide] and `CC(=O)Nc1ccccc1C(=O)Nc1nc(Br)c([N+](=O)[O-])s1` [B-30, 2-acetamido-N-(4-bromo-5-nitrothiazol-2-yl)benzamide] fall in the same range of Kd: 20 to 100 µM for the first, 20 to 100 µM for the second.

`CC(=O)Nc1ccccc1C(=O)Nc1nc(C(F)(F)F)c([N+](=O)[O-])s1` [B-31, 2-Acetamido-N-(5-nitro-4-(trifluoromethyl)thiazol-2-yl)benzamide] and `CC(=O)Nc1ccccc1C(=O)Nc1nc(C2CC2)c([N+](=O)[O-])s1` [B-32, 2-Acetamido-N-(4-cyclopropyl-5-nitrothiazol-2-yl)benzamide] fall in the same range of Kd: 20 to 100 µM for the first, 20 to 100 µM for the second.

`CC(=O)Nc1ccccc1C(=O)Nc1nc(C(C)C)c([N+](=O)[O-])s1` [B-33, 2-Acetamido-N-(4-isopropyl-5-nitrothiazol-2-yl)benzamide] and `CC(=O)Nc1ccccc1C(=O)Nc1nc(-c2ccccc2)c([N+](=O)[O-])s1` [B-34, 2-acetamido-N-(5-nitro-4-phenylthiazol-2-yl)benzamide] cannot be ordered by Kd: < 20 µM for the first, < 20 µM for the second.

`CC(=O)Nc1ccccc1C(=O)Nc1ncc(Cl)s1` [B-35, 2-Acetamido-N-(5-chlorothiazol-2-yl)benzamide] and `CC(=O)Nc1ccccc1C(=O)Nc1ncc(F)s1` [B-36, 2-Acetamido-N-(5-fluorothiazol-2-yl)benzamide] fall in the same range of Kd: 20 to 100 µM for the first, 20 to 100 µM for the second.

Going from `CC(=O)Nc1ccccc1C(=O)Nc1ncc(Br)s1` [B-37, 2-Acetamido-N-(5-bromothiazol-2-yl)benzamide] to `CC(=O)Nc1ccccc1C(=O)Nc1ncc(C(F)(F)F)s1` [B-38, 2-acetamido-N-(5-(trifluoromethyl)thiazol-2-yl)benzamide], the Kd falls from > 100 µM to < 20 µM. The second binds more tightly here.

`CC(=O)Nc1ccccc1C(=O)Nc1ncc(C#N)s1` [B-39, 2-acetamido-N-(5-cyanothiazol-2-yl)benzamide] and `CC(=O)Nc1ccccc1C(=O)Nc1nc(C)c(Cl)s1` [B-40, 2-acetamido-N-(5-chloro-4-methylthiazol-2-yl)benzamide] fall in the same range of Kd: 20 to 100 µM for the first, 20 to 100 µM for the second.

First: CC(=O)Nc1ccccc1C(=O)Nc1nccs1 [B-41, 2-Acetamido-N-(thiazol-2-yl)benzamide]
Second: CC(=O)Nc1ccccc1C(=O)Nc1ncc(C)s1 [B-42, 2-Acetamido-N-(5-methylthiazol-2-yl)benzamide]
The Kd of the first is higher: > 100 µM for the first, 20 to 100 µM for the second.

First: CC(=O)Nc1ccccc1C(=O)Nc1ncc(C(C)C)s1 [B-43, 2-Acetamido-N-(5-isopropylthiazol-2-yl)benzamide]
Second: CC(=O)Nc1ccccc1C(=O)Nc1ncc(-c2ccccc2)s1 [B-45, 2-acetamido-N-(5-phenylthiazol-2-yl)benzamide]
The Kd of the first is higher: 20 to 100 µM for the first, < 20 µM for the second. The second binds more tightly here.

same assay, conditions: read-out: Binding (DDB1 binder activities, Kd)

In the case of `CCCNC(=O)c1ccc(C(=O)Nc2ncc([N+](=O)[O-])s2)c(OC(C)=O)c1` [B-12, 2-((5-Nitrothiazol-2-yl)carbamoyl)-5-(propylcarbamoyl)phenyl acetate], the Kd is reported as < 20 µM.

Reference: patent US20240066136A1, “MODIFIED PROTEINS AND PROTEIN DEGRADERS” (Cullgen (Shanghai), Inc., priority 2020, published 2024)
